PubChem BioAssay AID1963861 (Molecular Pharmacology Branch, DTP, NCI, 2024)

Tested on: 885724-159-R-J1-PDC KRAS PDC multicell spheroid viability
Assay: Anticancer human tumor 885724-159-R-J1-PDC patient-derived pancreatic adenocarcinoma cell line growth inhibition [KRAS2]
Conditions: for IC50: curve of first compound; for viability, T/C: stronger effect = lower value
Method in brief: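 Combination screen of spheroid viability in tumor-cell co-cultures with endothelial (HUVEC) and mesenchymal stem cell stroma. Each agent was tested in half-log dilutions, topping at clinical Cmax or at 10 microM without a known Cmax.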

[1] = second compound 0.1 µM, first compound 0.0316 µM
[2] = second compound 0.1 µM, first compound 0.1 µM
[3] = second compound 0.1 µM, first compound 0.316 µM
[4] = second compound 0.1 µM, first compound 1 µM
[5] = second compound 0.1 µM, first compound 3.16 µM
[6] = second compound 0.1 µM, first compound 10 µM
[7] = second compound 0.316 µM, first compound 0.0316 µM
[8] = second compound 0.316 µM, first compound 0.1 µM
[9] = second compound 0.316 µM, first compound 0.316 µM
[10] = second compound 0.316 µM, first compound 1 µM
[11] = second compound 0.316 µM, first compound 3.16 µM
[12] = second compound 0.316 µM, first compound 10 µM
[13] = second compound 1 µM, first compound 0.0316 µM
[14] = second compound 1 µM, first compound 0.1 µM
[15] = second compound 1 µM, first compound 0.316 µM
[16] = second compound 1 µM, first compound 1 µM
[17] = second compound 1 µM, first compound 3.16 µM
[18] = second compound 1 µM, first compound 10 µM
[19] = second compound 3.16 µM, first compound 0.0316 µM
[20] = second compound 3.16 µM, first compound 0.1 µM
[21] = second compound 3.16 µM, first compound 0.316 µM
[22] = second compound 3.16 µM, first compound 1 µM
[23] = second compound 3.16 µM, first compound 3.16 µM
[24] = second compound 3.16 µM, first compound 10 µM
[25] = second compound 10 µM, first compound 0.0316 µM
[26] = second compound 10 µM, first compound 0.1 µM
[27] = second compound 10 µM, first compound 0.316 µM
[28] = second compound 10 µM, first compound 1 µM
[29] = second compound 10 µM, first compound 3.16 µM
[30] = second compound 10 µM, first compound 10 µM
[31] = second compound 0.1 µM, first compound 0.000316 µM
[32] = second compound 0.1 µM, first compound 0.001 µM
[33] = second compound 0.1 µM, first compound 0.00316 µM
[34] = second compound 0.1 µM, first compound 0.01 µM
[35] = second compound 0.316 µM, first compound 0.000316 µM
[36] = second compound 0.316 µM, first compound 0.001 µM
[37] = second compound 0.316 µM, first compound 0.00316 µM
[38] = second compound 0.316 µM, first compound 0.01 µM
[39] = second compound 1 µM, first compound 0.000316 µM
[40] = second compound 1 µM, first compound 0.001 µM
[41] = second compound 1 µM, first compound 0.00316 µM
[42] = second compound 1 µM, first compound 0.01 µM
[43] = second compound 3.16 µM, first compound 0.000316 µM
[44] = second compound 3.16 µM, first compound 0.001 µM
[45] = second compound 3.16 µM, first compound 0.00316 µM
[46] = second compound 3.16 µM, first compound 0.01 µM
[47] = second compound 10 µM, first compound 0.000316 µM
[48] = second compound 10 µM, first compound 0.001 µM
[49] = second compound 10 µM, first compound 0.00316 µM
[50] = second compound 10 µM, first compound 0.01 µM
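Also: spheroids exposed to agents for 7 days before readout.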

Question: With `CC(C)NCC(C(=O)N1CCN(c2ncnc3c2C(C)CC3O)CC1)c1ccc(Cl)cc1` (stereo not given) + CC1OCC2(CCN(c3cnc(Sc4ccnc(N)c4Cl)c(N)n3)CC2)C1N as the molecule, how does the IC50 (second compound 0.1 µM) read?
Answer: 8.34 µM

Question: And the IC50 (second compound 0.316 µM)?
Answer: 5.81 µM

Question: And the IC50 (second compound 1 µM)?
Answer: 2.21 µM

Question: And the IC50 (second compound 3.16 µM)?
Answer: 0.524 µM

Question: And the IC50 (second compound 10 µM)?
Answer: 0.1 µM

Question: What about the viability, T/C [1] of the same molecule?
Answer: 77.6%

Question: What about the viability, T/C [2] of the same molecule?
Answer: 72.6%

Question: And the viability, T/C [3]?
Answer: 64.5%

Question: And the viability, T/C [4]?
Answer: 65.5%

Question: And the viability, T/C [5]?
Answer: 63.8%

Question: And the viability, T/C [6]?
Answer: 45.9%

Question: And the viability, T/C [7]?
Answer: 72.5%

Question: And the viability, T/C [8]?
Answer: 60.3%

Question: And the viability, T/C [9]?
Answer: 58.9%

Question: What about the viability, T/C [10] of the same molecule?
Answer: 61.5%

Question: And the viability, T/C [11]?
Answer: 59.7%

Question: What about the viability, T/C [12] of the same molecule?
Answer: 42.7%

Question: What about the viability, T/C [13] of the same molecule?
Answer: 67.8%

Question: What about the viability, T/C [14] of the same molecule?
Answer: 62.1%

Question: And the viability, T/C [15]?
Answer: 55%

Question: What about the viability, T/C [16] of the same molecule?
Answer: 51.4%

Question: What about the viability, T/C [17] of the same molecule?
Answer: 54.4%

Question: And the viability, T/C [18]?
Answer: 41.7%

Question: And the viability, T/C [19]?
Answer: 57.1%

Question: What about the viability, T/C [20] of the same molecule?
Answer: 55.6%

Question: What about the viability, T/C [21] of the same molecule?
Answer: 46.2%

Question: What about the viability, T/C [22] of the same molecule?
Answer: 47.5%

Question: What about the viability, T/C [23] of the same molecule?
Answer: 46.5%

Question: What about the viability, T/C [24] of the same molecule?
Answer: 32.2%

Question: What about the viability, T/C [25] of the same molecule?
Answer: 56.4%

Question: What about the viability, T/C [26] of the same molecule?
Answer: 49.6%

Question: And the viability, T/C [27]?
Answer: 42.4%

Question: And the viability, T/C [28]?
Answer: 37%

Question: What about the viability, T/C [29] of the same molecule?
Answer: 36.2%

Question: What about the viability, T/C [30] of the same molecule?
Answer: 21.8%

Question: With `CC(C)n1nc(-c2ccc3oc(N)nc3c2)c2c(N)ncnc21` + CC1OCC2(CCN(c3cnc(Sc4ccnc(N)c4Cl)c(N)n3)CC2)C1N as the molecule, how does the IC50 (second compound 0.1 µM) read?
Answer: 0.0633 µM

Question: And the IC50 (second compound 0.316 µM)?
Answer: 0.0498 µM

Question: And the IC50 (second compound 1 µM)?
Answer: 0.033 µM

Question: What about the IC50 (second compound 3.16 µM) of the same molecule?
Answer: 0.012 µM

Question: What about the IC50 (second compound 10 µM) of the same molecule?
Answer: 0.0131 µM

Question: And the viability, T/C [31]?
Answer: 90.5%

Question: And the viability, T/C [32]?
Answer: 79%

Question: What about the viability, T/C [33] of the same molecule?
Answer: 69.8%

Question: And the viability, T/C [34]?
Answer: 64.8%

Question: What about the viability, T/C [1] of the same molecule?
Answer: 53.5%

Question: And the viability, T/C [2]?
Answer: 46.8%

Question: And the viability, T/C [35]?
Answer: 86.5%

Question: What about the viability, T/C [36] of the same molecule?
Answer: 75.7%

Question: And the viability, T/C [37]?
Answer: 65%

Question: And the viability, T/C [38]?
Answer: 58.6%

Question: And the viability, T/C [7]?
Answer: 55.7%

Question: And the viability, T/C [8]?
Answer: 44.8%

Question: And the viability, T/C [39]?
Answer: 76.2%

Question: And the viability, T/C [40]?
Answer: 69.1%

Question: And the viability, T/C [41]?
Answer: 63.2%

Question: And the viability, T/C [42]?
Answer: 53.6%

Question: What about the viability, T/C [13] of the same molecule?
Answer: 53.4%

Question: And the viability, T/C [14]?
Answer: 43.5%

Question: What about the viability, T/C [43] of the same molecule?
Answer: 77.7%

Question: What about the viability, T/C [44] of the same molecule?
Answer: 79.3%

Question: And the viability, T/C [45]?
Answer: 61.5%

Question: What about the viability, T/C [46] of the same molecule?
Answer: 53.3%

Question: What about the viability, T/C [19] of the same molecule?
Answer: 45.5%

Question: And the viability, T/C [20]?
Answer: 47.3%

Question: And the viability, T/C [47]?
Answer: 72.6%

Question: And the viability, T/C [48]?
Answer: 70%

Question: What about the viability, T/C [49] of the same molecule?
Answer: 63.2%

Question: And the viability, T/C [50]?
Answer: 51.5%

Question: What about the viability, T/C [25] of the same molecule?
Answer: 44.1%

Question: What about the viability, T/C [26] of the same molecule?
Answer: 39.6%

Question: `CC1(C)CCC(CN2CCN(c3ccc(C(=O)NS(=O)(=O)c4ccc(NCC5CCOCC5)c([N+](=O)[O-])c4)c(Oc4cnc5[nH]ccc5c4)c3)CC2)=C(c2ccc(Cl)cc2)C1` + CC1OCC2(CCN(c3cnc(Sc4ccnc(N)c4Cl)c(N)n3)CC2)C1N was tested. Which IC50 (second compound 0.1 µM) did it give?
Answer: 4.31 µM

Question: What about the IC50 (second compound 0.316 µM) of the same molecule?
Answer: 3.45 µM

Question: And the IC50 (second compound 1 µM)?
Answer: 2.85 µM

Question: What about the IC50 (second compound 3.16 µM) of the same molecule?
Answer: 1.62 µM

Question: And the IC50 (second compound 10 µM)?
Answer: 1.21 µM

Question: What about the viability, T/C [1] of the same molecule?
Answer: 88%

Question: What about the viability, T/C [2] of the same molecule?
Answer: 88.3%

Question: And the viability, T/C [3]?
Answer: 89%

Question: And the viability, T/C [4]?
Answer: 74.8%

Question: And the viability, T/C [5]?
Answer: 58.2%

Question: What about the viability, T/C [6] of the same molecule?
Answer: 29.7%

Question: And the viability, T/C [7]?
Answer: 82.3%

Question: What about the viability, T/C [8] of the same molecule?
Answer: 83.8%

Question: And the viability, T/C [9]?
Answer: 75.4%

Question: And the viability, T/C [10]?
Answer: 74.2%

Question: What about the viability, T/C [11] of the same molecule?
Answer: 51.7%

Question: And the viability, T/C [12]?
Answer: 22.1%

Question: And the viability, T/C [13]?
Answer: 77.8%

Question: What about the viability, T/C [14] of the same molecule?
Answer: 75.2%

Question: What about the viability, T/C [15] of the same molecule?
Answer: 68.5%

Question: What about the viability, T/C [16] of the same molecule?
Answer: 62.2%

Question: What about the viability, T/C [17] of the same molecule?
Answer: 51.1%

Question: What about the viability, T/C [18] of the same molecule?
Answer: 17.6%

Question: And the viability, T/C [19]?
Answer: 64.1%

Question: What about the viability, T/C [20] of the same molecule?
Answer: 63.7%

Question: What about the viability, T/C [21] of the same molecule?
Answer: 63.2%

Question: And the viability, T/C [22]?
Answer: 57.4%

Question: What about the viability, T/C [23] of the same molecule?
Answer: 39.7%

Question: What about the viability, T/C [24] of the same molecule?
Answer: 12%

Question: What about the viability, T/C [25] of the same molecule?
Answer: 58%

Question: And the viability, T/C [26]?
Answer: 58.3%

Question: And the viability, T/C [27]?
Answer: 60.5%

Question: What about the viability, T/C [28] of the same molecule?
Answer: 53.5%

Question: And the viability, T/C [29]?
Answer: 30.4%

Question: What about the viability, T/C [30] of the same molecule?
Answer: 3.18%

Question: What does the source list for `Cn1ncnc1[C@H]1c2n[nH]c(=O)c3cc(F)cc(c23)N[C@@H]1c1ccc(F)cc1` + CC1OCC2(CCN(c3cnc(Sc4ccnc(N)c4Cl)c(N)n3)CC2)C1N?
Answer: IC50 (second compound 0.1 µM): > 0.1 µM; IC50 (second compound 0.316 µM): > 0.1 µM; IC50 (second compound 1 µM): > 0.1 µM; IC50 (second compound 3.16 µM): > 0.1 µM; IC50 (second compound 10 µM): > 0.1 µM; viability, T/C [31]: 84.8%; viability, T/C [32]: 86.1%; viability, T/C [33]: 85.2%; viability, T/C [34]: 87.9%; viability, T/C [1]: 78.5%; viability, T/C [2]: 78.7%; viability, T/C [35]: 76.4%; viability, T/C [36]: 78%; viability, T/C [37]: 78.2%; viability, T/C [38]: 79.1%; viability, T/C [7]: 71.8%; viability, T/C [8]: 69.7%; viability, T/C [39]: 78.6%; viability, T/C [40]: 74.5%; viability, T/C [41]: 71.4%; viability, T/C [42]: 68.5%; viability, T/C [13]: 69.2%; viability, T/C [14]: 73.6%; viability, T/C [43]: 70.1%; viability, T/C [44]: 72.6%; viability, T/C [45]: 69.8%; viability, T/C [46]: 67%; viability, T/C [19]: 62.5%; viability, T/C [20]: 58.8%; viability, T/C [47]: 62.7%; viability, T/C [48]: 65.5%; viability, T/C [49]: 64.8%; viability, T/C [50]: 59.9%; viability, T/C [25]: 61.7%; viability, T/C [26]: 61.4%
